In ChEMBL document CHEMBL1149776, “Synthesis and biological evaluation of some thiazolyl and thiadiazolyl derivatives of 1H-pyrazole as anti-inflammatory antimicrobial agents” (Eur J Med Chem, 2008):
Converted amounts (≈) assume the structure as drawn.

What was measured:
Rattus norvegicus [1] = species: Rattus norvegicus; test: Antiinflammatory activity in Sprague-Dawley rat cotton pellet-induced granuloma model; format: functional
Rattus norvegicus [2] = test: Gastrointestinal toxicity in albino rat assessed as ulcerogenic effect at 30 umol/kg, po for 3 days; format: organism-based; conditions: in vivo, 72 h
Escherichia coli = test: Antimicrobial activity against Escherichia coli ATCC 25922; format: functional
Staphylococcus aureus = test: Antimicrobial activity against Staphylococcus aureus ATCC 19433; format: functional
Candida albicans = test: Antimicrobial activity against Candida albicans; format: functional
Rattus norvegicus [3] = test: Antiinflammatory activity in albino rat assessed as protection against carrageenan-induced paw edema at 10 umol/kg, sc administered 1 hr prior to carrageenan challenge relative to indomethacin; format: functional
[4] = molecular target: Prostaglandin G/H synthase 1 (Homo sapiens, UniProt P23219); test: Inhibition of human platelet COX1
Mus musculus [5] = test: Toxicity in mouse upto 40 mg/kg, po assessed as mortality after 24 hrs; format: organism-based; set-up: dose 40 mg/kg, route oral; conditions: in vivo
Mus musculus [6] = test: Toxicity in parenterally dosed mouse upto 65 mg/kg assessed as mortality upto 7 days; format: organism-based; set-up: dose 65 mg/kg; conditions: in vivo, 168 h

Chain of Prostaglandin G/H synthase 1 (P23219 whole entry): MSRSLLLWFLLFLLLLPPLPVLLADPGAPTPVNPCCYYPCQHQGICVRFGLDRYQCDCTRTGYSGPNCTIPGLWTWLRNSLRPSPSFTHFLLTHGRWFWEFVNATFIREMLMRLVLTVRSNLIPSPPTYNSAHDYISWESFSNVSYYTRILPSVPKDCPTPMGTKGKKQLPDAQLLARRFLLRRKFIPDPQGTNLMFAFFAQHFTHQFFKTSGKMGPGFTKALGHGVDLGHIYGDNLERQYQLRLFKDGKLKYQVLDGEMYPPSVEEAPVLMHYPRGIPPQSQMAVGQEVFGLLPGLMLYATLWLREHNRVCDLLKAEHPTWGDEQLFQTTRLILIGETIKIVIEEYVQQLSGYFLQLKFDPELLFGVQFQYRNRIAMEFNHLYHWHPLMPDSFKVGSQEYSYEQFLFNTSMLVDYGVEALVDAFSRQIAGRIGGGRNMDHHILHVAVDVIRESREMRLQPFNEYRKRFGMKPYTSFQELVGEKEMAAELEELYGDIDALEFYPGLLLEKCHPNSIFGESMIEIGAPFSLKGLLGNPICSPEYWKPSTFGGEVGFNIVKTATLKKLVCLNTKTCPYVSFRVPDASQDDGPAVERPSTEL

MIC (Escherichia coli) [µg/mL]	MIC (Staphylococcus aureus) [µg/mL]	MIC (Candida albicans) [µg/mL]	Structure (SMILES)	ED50 (Rattus norvegicus [1]) [µmol]	Activity (Rattus norvegicus [2]) [%]	Activity (Rattus norvegicus [3]) [%]	IC50 [4] [µmol]	Activity (Mus musculus [5])	Activity (Mus musculus [6])
50 (≈ 76.9 µM)	> 200	25 (≈ 38.5 µM)	CC(=O)N(C1=NN(C(C)=O)C(c2cn(-c3ccc(S(=O)(=O)/N=C/N(C)C)cc3)nc2-c2ccccc2)S1)c1ccc(Cl)cc1 (stereo unspecified)	13.96	10	–	–	–	–
100 (≈ 177 µM)	100 (≈ 177 µM)	> 200	CN(C)/C=N/S(=O)(=O)c1ccc(-n2cc(-c3nnc(Nc4ccc(Cl)cc4)s3)c(-c3ccccc3)n2)cc1	11.88	10	–	–	–	–
100 (≈ 184 µM)	25 (≈ 46 µM)	> 200	Cc1ccc(Nc2nnc(-c3cn(-c4ccc(S(=O)(=O)/N=C/N(C)C)cc4)nc3-c3ccccc3)s2)cc1	12.46	10	–	–	–	–
50 (≈ 79.4 µM)	100 (≈ 159 µM)	25 (≈ 39.7 µM)	CC(=O)N(C1=NN(C(C)=O)C(c2cn(-c3ccc(S(=O)(=O)/N=C/N(C)C)cc3)nc2-c2ccccc2)S1)c1ccc(C)cc1 (stereo unspecified)	14.86	10	–	–	–	–
50 (≈ 81.2 µM)	> 200	50 (≈ 81.2 µM)	CC(=O)N(C1=NN(C(C)=O)C(c2cn(-c3ccc(S(=O)(=O)/N=C/N(C)C)cc3)nc2-c2ccccc2)S1)c1ccccc1 (stereo unspecified)	12.54	20	–	–	–	–
50 (≈ 69 µM)	50 (≈ 69 µM)	100 (≈ 138 µM)	Cc1ccc(-n2c(-c3ccc(Br)cc3)cs/c2=N\N=C/c2cn(-c3ccc(S(=O)(=O)/N=C/N(C)C)cc3)nc2-c2ccccc2)cc1	11.06	0	94.46	96.25	–	–
100 (≈ 189 µM)	> 200	100 (≈ 189 µM)	CN(C)/C=N/S(=O)(=O)c1ccc(-n2cc(-c3nnc(Nc4ccccc4)s3)c(-c3ccccc3)n2)cc1	11.38	0	–	–	–	–
50 (≈ 87.5 µM)	25 (≈ 43.7 µM)	100 (≈ 175 µM)	CN(C)/C=N/S(=O)(=O)c1ccc(-n2cc(/C=N\N=C3/SCC(=O)N3c3ccccc3)c(-c3ccccc3)n2)cc1	13.36	10	–	–	–	–

Second part, the compound before the results:

Structure (SMILES)	MIC (Escherichia coli) [µg/mL]	MIC (Staphylococcus aureus) [µg/mL]	MIC (Candida albicans) [µg/mL]	ED50 (Rattus norvegicus [1]) [µmol]	Activity (Rattus norvegicus [2]) [%]	Activity (Rattus norvegicus [3]) [%]	IC50 [4] [µmol]	Activity (Mus musculus [5])	Activity (Mus musculus [6])
CN(C)/C=N/S(=O)(=O)c1ccc(-n2cc(/C=N\N=c3/scc(-c4ccc(Br)cc4)n3-c3ccccc3)c(-c3ccccc3)n2)cc1	25 (≈ 35.2 µM)	25 (≈ 35.2 µM)	> 200	12.96	0	–	–	–	–
CN(C)/C=N/S(=O)(=O)c1ccc(-n2cc(/C=N\N=C3/SCC(=O)N3c3ccc(Cl)cc3)c(-c3ccccc3)n2)cc1	100 (≈ 165 µM)	25 (≈ 41.2 µM)	> 200	9.12	10	104.16	> 100	Non-toxic	Non-toxic
Cc1ccc(N2C(=O)CS/C2=N\N=C/c2cn(-c3ccc(S(=O)(=O)/N=C/N(C)C)cc3)nc2-c2ccccc2)cc1	25 (≈ 42.7 µM)	100 (≈ 171 µM)	100 (≈ 171 µM)	9.34	20	98.65	87.12	Non-toxic	Non-toxic
CN(C)/C=N/S(=O)(=O)c1ccc(-n2cc(/C=N\N=c3/scc(-c4ccc(Br)cc4)n3-c3ccc(Cl)cc3)c(-c3ccccc3)n2)cc1	100 (≈ 134 µM)	100 (≈ 134 µM)	50 (≈ 67.1 µM)	9.56	0	–	–	Non-toxic	Non-toxic
CC1(C)S[C@@H]2[C@H](NC(=O)[C@H](N)c3ccccc3)C(=O)N2[C@H]1C(=O)O [AMPICILLIN]	25 (≈ 71.5 µM)	12.5 (≈ 35.8 µM)	–	–	–	–	–	–	–
COc1ccc2c(c1)c(CC(=O)O)c(C)n2C(=O)c1ccc(Cl)cc1 [INDOMETHACIN]	–	–	–	9.58	100	–	–	–	–
